Experimental data reported in patent US10131652B2, “Pyrimidinyloxy benzene derivatives as herbicides” (E. I. DU PONT DE NEMOURS AND COMPANY, priority 2014, dated 2018).
Read-outs that look alike come from different tables or passages of the source.

Columns and labels:
Test in all cases: Test D pre-/postemergence plant response
Assay type in all cases: in vivo
[1] = system: waterhemp (common waterhemp, Amaranthus rudis); conditions: Amaranthus tuberculatus; for pest or weed control at 125 g/ha: 125 g ai/ha
Summary of the method: (§1)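 0 = no effect, 100 = complete control: plants were scored this way by visual comparison with controls 13 to 15 days post-treatment. Application was preemergence to sown loam/sand pots or postemergence to 2–18 cm seedlings in peat-based mix.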

[2] = system: giant foxtail (Setaria faberii); conditions: Setaria faberi; for pest or weed control at 16 g/ha: 16 g ai/ha; for pest or weed control at 31 g/ha: 31 g ai/ha; for pest or weed control at 62 g/ha: 62 g ai/ha; for pest or weed control at 125 g/ha: 125 g ai/ha
Summary of the method: as §1

[3] = system: velvetleaf (Abutilon theophrasti); conditions: Abutilon theophrasti; for pest or weed control at 31 g/ha: 31 g ai/ha; for pest or weed control at 62 g/ha: 62 g ai/ha; for pest or weed control at 125 g/ha: 125 g ai/ha
Summary of the method: as §1

[4] = system: Italian ryegrass (Lolium multiflorum); conditions: Lolium multiflorum; for pest or weed control at 31 g/ha: 31 g ai/ha; for pest or weed control at 62 g/ha: 62 g ai/ha; for pest or weed control at 125 g/ha: 125 g ai/ha
Summary of the method: as §1

[5] = system: blackgrass (Alopecurus myosuroides); conditions: Alopecurus myosuroides; for pest or weed control at 16 g/ha: 16 g ai/ha; for pest or weed control at 31 g/ha: 31 g ai/ha; for pest or weed control at 62 g/ha: 62 g ai/ha; for pest or weed control at 125 g/ha: 125 g ai/ha
Summary of the method: as §1

[6] = system: lambsquarters (Chenopodium album); conditions: Chenopodium album; for pest or weed control at 31 g/ha: 31 g ai/ha; for pest or weed control at 62 g/ha: 62 g ai/ha; for pest or weed control at 125 g/ha: 125 g ai/ha
Summary of the method: as §1

[7] = system: large (Lg) crabgrass (Digitaria sanguinalis); conditions: Digitaria sanguinalis; for pest or weed control at 16 g/ha: 16 g ai/ha; for pest or weed control at 31 g/ha: 31 g ai/ha; for pest or weed control at 62 g/ha: 62 g ai/ha; for pest or weed control at 125 g/ha: 125 g ai/ha
Summary of the method: as §1

[8] = post-emergence, Postemergence, scale 0 to 100 (0 no effect, 100 complete control), read-out: Foxtail, Giant plant response rating
[9] = post-emergence, Postemergence, scale 0 to 100, 0 no effect, 100 complete control, read-out: Plant response rating, Foxtail, Giant
[10] = pre-emergence, Preemergence, scale 0 to 100 (0 no effect, 100 complete control), read-out: Plant response rating, Foxtail, Giant
[11] = post-emergence, Postemergence, scale 0 to 100, 0 no effect, 100 complete control, read-out: Plant response rating, Velvetleaf
[12] = pre-emergence, Preemergence, scale 0 to 100 (0 no effect, 100 complete control), read-out: Plant response rating, Velvetleaf
[13] = post-emergence, Postemergence, scale 0 to 100, 0 no effect, 100 complete control, read-out: Plant response rating, Ryegrass, Italian
[14] = pre-emergence, Preemergence, scale 0 to 100 (0 no effect, 100 complete control), read-out: Plant response rating, Ryegrass, Italian
[15] = post-emergence, Postemergence, scale 0 to 100 (0 no effect, 100 complete control), read-out: Blackgrass plant response rating
[16] = post-emergence, Postemergence, scale 0 to 100, 0 no effect, 100 complete control, read-out: Plant response rating, Blackgrass
[17] = pre-emergence, Preemergence, scale 0 to 100 (0 no effect, 100 complete control), read-out: Plant response rating, Blackgrass
[18] = post-emergence, Postemergence, scale 0 to 100, 0 no effect, 100 complete control, read-out: Plant response rating, Lambsquarters
[19] = pre-emergence, Preemergence, scale 0 to 100 (0 no effect, 100 complete control), read-out: Plant response rating, Lambsquarters
[20] = post-emergence, Postemergence, scale 0 to 100 (0 no effect, 100 complete control), read-out: Crabgrass, Large plant response rating
[21] = post-emergence, Postemergence, scale 0 to 100, 0 no effect, 100 complete control, read-out: Plant response rating, Crabgrass, Large
[22] = pre-emergence, Preemergence, scale 0 to 100 (0 no effect, 100 complete control), read-out: Plant response rating, Crabgrass, Large

How did the pest or weed control at 125 g/ha ([1]; post-emergence, Postemergence, scale 0 to 100, 0 no effect, 100 complete control, read-out: Plant response rating, Waterhemp) turn out when `Fc1cccc(Oc2ncc(Cl)cn2)c1-c1cc(C(F)F)no1` [Compound 144, 5-chloro-2-[2-[3-(difluoromethyl)-5-isoxazolyl]-3-fluorophenoxy]pyrimidine] was run?
Its pest or weed control at 125 g/ha is 100%.

What about the pest or weed control at 125 g/ha ([1]; pre-emergence, Preemergence, read-out: Plant response rating (scale 0 to 100), Waterhemp) of the same compound?
Its pest or weed control at 125 g/ha is 100%.

And the pest or weed control at 16 g/ha ([1]; pre-emergence, Preemergence, 16 g ai/ha, scale 0 to 100 (0 no effect, 100 complete control), read-out: Plant response rating, Waterhemp)?
The pest or weed control at 16 g/ha was 100%.

And the pest or weed control at 31 g/ha ([1]; pre-emergence, Preemergence, 31 g ai/ha, scale 0 to 100 (0 no effect, 100 complete control), read-out: Plant response rating, Waterhemp)?
Its pest or weed control at 31 g/ha is 100%.

What about the pest or weed control at 62 g/ha ([1]; pre-emergence, Preemergence, 62 g ai/ha, scale 0 to 100 (0 no effect, 100 complete control), read-out: Plant response rating, Waterhemp) of the same compound?
The pest or weed control at 62 g/ha was 100%.

And the pest or weed control at 16 g/ha [2, 8]?
Its pest or weed control at 16 g/ha is 5%.

What about the pest or weed control at 31 g/ha [2, 8] of the same compound?
The pest or weed control at 31 g/ha was 10%.

And the pest or weed control at 62 g/ha [2, 9]?
Its pest or weed control at 62 g/ha is 25%.

And the pest or weed control at 125 g/ha [2, 9]?
The pest or weed control at 125 g/ha was 25%.

And the pest or weed control at 125 g/ha ([2]; pre-emergence, Preemergence, read-out: Plant response rating (scale 0 to 100), Foxtail, Giant)?
Its pest or weed control at 125 g/ha is 100%.

What about the pest or weed control at 16 g/ha [2, 10] of the same compound?
The pest or weed control at 16 g/ha was 100%.

What about the pest or weed control at 31 g/ha [2, 10] of the same compound?
The pest or weed control at 31 g/ha was 100%.

And the pest or weed control at 62 g/ha [2, 10]?
The pest or weed control at 62 g/ha was 100%.

And the pest or weed control at 31 g/ha ([3]; post-emergence, Postemergence, scale 0 to 100 (0 no effect, 100 complete control), read-out: Velvetleaf plant response rating)?
Its pest or weed control at 31 g/ha is 55%.

And the pest or weed control at 62 g/ha [3, 11]?
The pest or weed control at 62 g/ha was 75%.

And the pest or weed control at 125 g/ha [3, 11]?
Its pest or weed control at 125 g/ha is 98%.

And the pest or weed control at 125 g/ha ([3]; pre-emergence, Preemergence, read-out: Plant response rating (scale 0 to 100), Velvetleaf)?
The pest or weed control at 125 g/ha was 100%.

What about the pest or weed control at 16 g/ha ([3]; pre-emergence, Preemergence, 16 g ai/ha, scale 0 to 100 (0 no effect, 100 complete control), read-out: Plant response rating, Velvetleaf) of the same compound?
The pest or weed control at 16 g/ha was 100%.

And the pest or weed control at 31 g/ha [3, 12]?
The pest or weed control at 31 g/ha was 100%.

What about the pest or weed control at 62 g/ha [3, 12] of the same compound?
The pest or weed control at 62 g/ha was 100%.

What about the pest or weed control at 31 g/ha ([4]; post-emergence, Postemergence, scale 0 to 100 (0 no effect, 100 complete control), read-out: Ryegrass, Italian plant response rating) of the same compound?
Its pest or weed control at 31 g/ha is 5%.

And the pest or weed control at 62 g/ha [4, 13]?
Its pest or weed control at 62 g/ha is 10%.

And the pest or weed control at 125 g/ha [4, 13]?
The pest or weed control at 125 g/ha was 10%.

And the pest or weed control at 125 g/ha ([4]; pre-emergence, Preemergence, read-out: Plant response rating (scale 0 to 100), Ryegrass, Italian)?
The pest or weed control at 125 g/ha was 98%.

And the pest or weed control at 16 g/ha ([4]; pre-emergence, Preemergence, 16 g ai/ha, scale 0 to 100 (0 no effect, 100 complete control), read-out: Plant response rating, Ryegrass, Italian)?
The pest or weed control at 16 g/ha was 5%.

And the pest or weed control at 31 g/ha [4, 14]?
Its pest or weed control at 31 g/ha is 60%.

And the pest or weed control at 62 g/ha [4, 14]?
Its pest or weed control at 62 g/ha is 80%.

And the pest or weed control at 16 g/ha [5, 15]?
The pest or weed control at 16 g/ha was 5%.

And the pest or weed control at 31 g/ha [5, 15]?
Its pest or weed control at 31 g/ha is 15%.

And the pest or weed control at 62 g/ha [5, 16]?
The pest or weed control at 62 g/ha was 15%.

What about the pest or weed control at 125 g/ha [5, 16] of the same compound?
Its pest or weed control at 125 g/ha is 75%.

And the pest or weed control at 125 g/ha ([5]; pre-emergence, Preemergence, read-out: Plant response rating (scale 0 to 100), Blackgrass)?
Its pest or weed control at 125 g/ha is 95%.

What about the pest or weed control at 16 g/ha [5, 17] of the same compound?
Its pest or weed control at 16 g/ha is 55%.

And the pest or weed control at 31 g/ha [5, 17]?
The pest or weed control at 31 g/ha was 95%.

And the pest or weed control at 62 g/ha [5, 17]?
The pest or weed control at 62 g/ha was 95%.

What about the pest or weed control at 31 g/ha ([6]; post-emergence, Postemergence, scale 0 to 100 (0 no effect, 100 complete control), read-out: Lambsquarters plant response rating) of the same compound?
The pest or weed control at 31 g/ha was 80%.

What about the pest or weed control at 62 g/ha [6, 18] of the same compound?
Its pest or weed control at 62 g/ha is 90%.

And the pest or weed control at 125 g/ha [6, 18]?
Its pest or weed control at 125 g/ha is 95%.

And the pest or weed control at 125 g/ha ([6]; pre-emergence, Preemergence, read-out: Plant response rating (scale 0 to 100), Lambsquarters)?
Its pest or weed control at 125 g/ha is 100%.

And the pest or weed control at 16 g/ha ([6]; pre-emergence, Preemergence, 16 g ai/ha, scale 0 to 100 (0 no effect, 100 complete control), read-out: Plant response rating, Lambsquarters)?
The pest or weed control at 16 g/ha was 100%.

What about the pest or weed control at 31 g/ha [6, 19] of the same compound?
The pest or weed control at 31 g/ha was 100%.

And the pest or weed control at 62 g/ha [6, 19]?
Its pest or weed control at 62 g/ha is 100%.

And the pest or weed control at 16 g/ha [7, 20]?
Its pest or weed control at 16 g/ha is 5%.

And the pest or weed control at 31 g/ha [7, 20]?
Its pest or weed control at 31 g/ha is 10%.

And the pest or weed control at 62 g/ha [7, 21]?
Its pest or weed control at 62 g/ha is 15%.

What about the pest or weed control at 125 g/ha [7, 21] of the same compound?
Its pest or weed control at 125 g/ha is 20%.

And the pest or weed control at 125 g/ha ([7]; pre-emergence, Preemergence, read-out: Plant response rating (scale 0 to 100), Crabgrass, Large)?
The pest or weed control at 125 g/ha was 100%.

What about the pest or weed control at 16 g/ha [7, 22] of the same compound?
Its pest or weed control at 16 g/ha is 90%.

And the pest or weed control at 31 g/ha [7, 22]?
Its pest or weed control at 31 g/ha is 98%.

And the pest or weed control at 62 g/ha [7, 22]?
Its pest or weed control at 62 g/ha is 100%.
